The values that follow come from patent US10647686B2, “Substituted pyrimidines for preventing or treating cancer and inflammatory diseases” (KOREA RESEARCH INSTITUTE OF CHEMICAL TECHNOLOGY, priority 2016, dated 2020).

The term IC50 denotes the concentration that inhibits the measured activity by half.

The target in assay [1] is DRAK1 (Homo sapiens (Human), UniProt Q9UEE5). Briefly: DRAK1 kinase activity inhibition (ADP-Glo, MRCL3 peptide substrate). Type of assay: biochemical. The procedure: (§1) DRAK1 and DRAK2 recombinant proteins were purchased from SignalChem Inc. To measure the kinase enzyme activity, the ADP-Glo™ kit provided by Promega Inc. was used. Buffer A used in the kinase reaction was composed of 60 mM Tris-Cl (pH 7.5), 30 mM MgCl2 and 0.15% BSA. Just before the experiment, 1 mM DTT was prepared by diluting 1 M solution and added thereto.
(§2) To measure the DRAK1 and DRAK2 activity, the substrate MRCL3 peptide and ATP were mixed with the enzymes. After an appropriate period of time, the reaction product ADP was quantitatively analyzed.
(§3) The buffer solution A was used to make a 3× substrate solution of 3× concentration so that the final concentrations of ATP and MRCL3 peptides were 1 uM, respectively, and 2.5 μl of each solution was dispensed into Optiplate 384 (perkin-elmer) microplate.
(§4) The final concentrations of ATP and MRCL3 peptide were made to be 1 uM respectively by using buffer A, followed by preparing a 3× substrate solution. The prepared substrate solution was distributed in Optiplate 384 (Perkin-Elmer) microplate (2.5 ul/well). Then, the compounds of Examples 1˜39 and the compounds of Comparative Examples 1-6, whose concentrations were tripled by the final concentration were distributed thereto (2.5 ul/well). Lastly, DRAK1 or DRAK2 enzyme solution, properly diluted by using buffer A, was added thereto (2.5 ul/well). Centrifugation was performed at 800 rpm for 1 minute, and then enzyme reaction was induced at 30° C.
(§5) 2 hours later, the enzyme reaction was terminated. To eliminate residual ATP, ADP-Glo™ reagent contained in ADP-Glo™ was added to each well at the concentration of 7.5 ul, which was the same amount as the sum of the previously added reagents, followed by centrifugation at the same RPM and time as the above. Additional reaction was induced at room temperature for 40 minutes. To convert the ADP produced by the kinase activity to ATP, 15 ul of kinase detection buffer was added to each well, followed by centrifugation. Five minutes after the centrifugation was completed, the luminescence value of the reaction product was determined using Envision, and the enzyme activity inhibition effect of the compound was measured. Then, IC50 of each compound was determined using Prism program.
(§6) The compounds of Example 1 and Example 19 were used as the experimental group and the compound of Comparative Example 6 was used as the control.
On the technique in general: ADP-Glo first removes unused ATP, then detects ADP through luciferase.

The target of assay [2] is DRAK2 (Homo sapiens (Human), UniProt O94768). Briefly: DRAK2 kinase activity inhibition (ADP-Glo, MRCL3 peptide substrate). Type of assay: biochemical. As to conditions: for DRAK2 IC50 compared with Comparative Examples 7 and 8 (n is 0): from Table 5. The method, then:
as §1, §2, §3, §4, §5, §6
To evaluate DRAK2 inhibition activity of the compound represented by formula 1 according to the number of n, the experiment was performed with the compounds of Example 1, Example 19, Example 40, Comparative Example 7 and W Comparative Example 8 by the same manner as described in Experimental Example 1, leading to the measurement of IC50 to DRAK2.

The mark [3] stands for this setting: Table 3, recombinant enzyme, 1 uM ATP, 1 uM MRCL3 peptide, 30° C., 2 hours.
The mark [4] stands for this setting: Table 4, Experimental Example 2, DRAK2 selectivity evaluation.
[5] abbreviates: Table 5, Experimental Example 3, according to the number of n.

Sequence of DRAK2 (O94768 whole entry): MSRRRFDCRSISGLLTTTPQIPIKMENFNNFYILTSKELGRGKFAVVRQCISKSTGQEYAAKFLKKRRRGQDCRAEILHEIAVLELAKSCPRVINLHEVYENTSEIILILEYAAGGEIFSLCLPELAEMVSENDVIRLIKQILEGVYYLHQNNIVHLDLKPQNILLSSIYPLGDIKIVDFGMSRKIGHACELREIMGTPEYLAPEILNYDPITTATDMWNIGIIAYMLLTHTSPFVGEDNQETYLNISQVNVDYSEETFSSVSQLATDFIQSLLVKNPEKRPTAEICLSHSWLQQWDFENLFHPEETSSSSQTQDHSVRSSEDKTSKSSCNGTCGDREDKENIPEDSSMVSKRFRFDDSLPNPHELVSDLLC
Sequence of DRAK1 (Q9UEE5 whole entry): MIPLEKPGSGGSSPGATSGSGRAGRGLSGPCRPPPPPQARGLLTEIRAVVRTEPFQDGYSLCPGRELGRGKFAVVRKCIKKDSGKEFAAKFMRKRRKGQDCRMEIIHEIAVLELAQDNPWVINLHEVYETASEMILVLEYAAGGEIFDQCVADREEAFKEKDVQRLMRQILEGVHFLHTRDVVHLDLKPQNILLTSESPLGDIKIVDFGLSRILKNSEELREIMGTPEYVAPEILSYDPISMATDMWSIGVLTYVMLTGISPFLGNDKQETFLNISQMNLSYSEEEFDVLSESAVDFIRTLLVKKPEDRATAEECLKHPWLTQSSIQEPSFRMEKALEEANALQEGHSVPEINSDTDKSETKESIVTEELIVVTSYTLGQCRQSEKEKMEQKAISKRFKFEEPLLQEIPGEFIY

Consider `NCCCNc1nc(Nc2ccc(Oc3ccccc3)cc2)ncc1Cl` [Example 10, N4-(3-aminopropyl)-5-chloro-N2-(4-phenoxyphenyl)pyrimidine-2,4-diamine], for which the IC50 in assay [1] (setting [3]) turned out to be 180 nM; in assay [2] (setting [3]), 26 nM.

As for `CCc1ccc(Nc2ncc(Cl)c(NCCCN)n2)cc1` [Example 11, N4-(3-aminopropyl)-5-chloro-N2-(4-ethylphenyl)pyrimidine-2,4-diamine], the IC50 was 370 nM in assay [1] (setting [3]) and 44 nM in assay [2] (setting [3]).

With `CCCCCCc1ccc(Nc2ncc(Cl)c(NCCCN)n2)cc1` [Example 12, N4-(3-aminopropyl)-5-chloro-N2-(4-hexylphenyl)pyrimidine-2,4-diamine], the IC50 in assay [1] (setting [3]) was found to be 1900 nM; in assay [2] (setting [3]) it was 56 nM.

`NCCCNc1nc(Nc2ccc(S(=O)(=O)c3ccc([N+](=O)[O-])cc3)cc2)ncc1Cl` [Example 13, N4-(3-aminopropyl)-5-chloro-N2-(4-(4-nitrophenylsulfonyl)phenyl)pyrimidine-2,4-diamine]: the values for the IC50 in assay [1] (setting [3]) and in assay [2] (setting [3]) were 110 nM and 14 nM, respectively.

On to `Cc1ccc(Nc2ncc(Cl)c(NCCCN)n2)cc1C` [Example 14, N4-(3-aminopropyl)-5-chloro-N2-(3,4-dimethylphenyl)pyrimidine-2,4-diamine], for which the IC50 in assay [1] (setting [3]) was found to be 220 nM; in assay [2] (setting [3]), 37 nM.

Regarding `NCCCNc1nc(Nc2ccc(F)c(C(F)(F)F)c2)ncc1Cl` [Example 15, N4-(3-aminopropyl)-5-chloro-N2-(4-fluoro-3-(trifluoromethyl)phenyl)pyrimidine-2,4-diamine], the IC50 in assay [1] (setting [3]) amounted to 180 nM; in assay [2] (setting [3]), 26 nM.

For `NCCCNc1nc(Nc2ccc(Br)c(C(F)(F)F)c2)ncc1Cl` [Example 16, N4-(3-aminopropyl)-N2-(4-bromo-3-(trifluoromethyl)phenyl)-5-chloropyrimidine-2,4-diamine], the IC50 amounted to 740 nM in assay [1] (setting [3]) and 34 nM in assay [2] (setting [3]).

Consider `NCCCNc1nc(Nc2ccc(Br)cc2)ncc1Cl` [Example 17, N4-(3-aminopropyl)-N2-(4-bromophenyl)-5-chloropyrimidine-2,4-diamine], for which the IC50 turned out to be 390 nM in assay [1] (setting [3]) and 23 nM in assay [2] (setting [3]).

On to `COc1ccc(Nc2ncc(Cl)c(NCCCN)n2)cc1Cl` [Example 18, N4-(3-aminopropyl)-5-chloro-N2-(3-chloro-4-methoxyphenyl)pyrimidine-2,4-diamine], for which the results for the IC50 in assay [1] (setting [3]) and in assay [2] (setting [3]) were 180 nM and 35 nM, respectively.

As to `Cc1cnc(Nc2ccc(Cl)cc2)nc1NCCCN` [Example 19, N4-(3-aminopropyl)-N2-(4-chlorophenyl)-5-methylpyrimidine-2,4-diamine], the IC50 was determined as 710 nM in assay [1] (setting [3]); 710 nM in assay [1] (setting [4]); 23 nM in assay [2] (setting [3]); 23 nM in assay [2] (setting [4]); 23 nM in assay [2] (setting [5]). Besides, the “DRAK2 selectivity (DRAK2 versus DRAK1)” value in assay [2] (result in words, from Table 4) is reported as “excellent DRAK2 selectivity”. In addition, the “DRAK2 IC50 compared with Comparative Examples 7 and 8 (n is 0)” value in assay [2] (result in words) is given as “significantly lower IC50”.

Regarding `NCCCNc1nc(Nc2ccc3c(c2)OCO3)ncc1Cl` [Example 20, N4-(3-aminopropyl)-N2-(benzo[d][1,3]dioxol-5-yl)-5-chloropyrimidine-2,4-diamine], the figures for the IC50 in assay [1] (setting [3]) and in assay [2] (setting [3]) were 350 nM and 16 nM, respectively.

As for `NCCCNc1nc(Nc2ccc3c(c2)CCC3)ncc1Cl` [Example 21, N4-(3-aminopropyl)-5-chloro-N2-(2,3-dihydro-1H-indene-5-yl)pyrimidine-2,4-diamine], the IC50 came to 220 nM in assay [1] (setting [3]) and 21 nM in assay [2] (setting [3]).

Take `NCCCNc1nc(Nc2ccc3c(c2)OCCO3)ncc1Cl` [Example 22, N4-(3-aminopropyl)-5-chloro-N2-(2,3-dihydrobenzo[b][1,4]dioxin-6-yl)pyrimidine-2,4-diamine]: the IC50 in assay [1] (setting [3]) was 220 nM; in assay [2] (setting [3]), 24 nM.

Regarding `NCCCNc1nc(Nc2ccc3c(c2)CCCC3)ncc1Cl` [Example 23, N4-(3-aminopropyl)-5-chloro-N2-(5,6,7,8-tetrahydronaphthalene-2-yl)pyrimidine-2,4-diamine], the IC50 amounted to 160 nM in assay [1] (setting [3]) and 15 nM in assay [2] (setting [3]).

Consider `NCCCNc1nc(Nc2ccc3c(c2)CCCC3=O)ncc1Cl` [Example 24, 6-(4-(3-aminopropylamino)-5-chloropyrimidine-2-ylamino)-3,4-dihydronaphthalene-1(2H)-one], for which the IC50 was determined as 230 nM in assay [1] (setting [3]) and 19 nM in assay [2] (setting [3]).

Consider `NCCCNc1nc(Nc2ccc(N3CCNCC3)cc2)ncc1Cl` [Example 25, N4-(3-aminopropyl)-5-chloro-N2-(4-(piperazine-1-yl)phenyl)pyrimidine-2,4-diamine], for which the results for the concentration for half-maximal inhibition (IC50) in assay [1] (setting [3]) and in assay [2] (setting [3]) were 30 nM and 22 nM, respectively.

For the compound `NCCCCNc1nc(Nc2ccc(Cl)cc2)ncc1Cl` [Example 40, N4-(4-n-aminobutyl)-N2-(4-chlorophenyl)-5-chloropyrimidine-2,4-diamine], the IC50 in assay [1] (setting [3]) was 480 nM; in assay [2] (setting [3]) it was 47 nM; in assay [2] (setting [5]), 47 nM. Besides, the “DRAK2 IC50 compared with Comparative Examples 7 and 8 (n is 0)” value in assay [2] (result in words) is “significantly lower IC50”.
